Measurements as given in ChEMBL document CHEMBL5303304, “EUbOPEN Chemogenomics Library - IncuCyte” (2023).
Where “and” joins values, the source holds several entries; their conditions need not be identical. Identical values can stand only once.

What was measured:
Format in all cases: toxicity, cell-based
U2OS = assay: Incucyte cell viability with U2OS; conditions: human, 10 µM, compound concentration 10 uM
HEK-293T = assay: Incucyte cell viability with HEK293T; conditions: human, 10 µM, compound concentration 10 uM
Fibroblast = assay: Incucyte cell viability with human fibroblast; conditions: 10 µM, compound concentration 10 uM
Note: unitless GR value; below 1 slowed growth and below 0 cell loss.

| SMILES | Growth Rate (U2OS; 6 h, replicate number 1) | Growth Rate (U2OS; 6 h, replicate number 2) | Growth Rate (U2OS; 12 h, replicate number 1) | Growth Rate (U2OS; 12 h, replicate number 2) | Growth Rate (U2OS; 18 h, replicate number 1) | Growth Rate (U2OS; 18 h, replicate number 2) | Growth Rate (U2OS; 24 h, replicate number 1) | Growth Rate (HEK-293T; 6 h, replicate number 2) | Growth Rate (HEK-293T; 12 h, replicate number 2) | Growth Rate (Fibroblast; 6 h, replicate number 1) | Growth Rate (Fibroblast; 12 h, replicate number 2) | Growth Rate (Fibroblast; 18 h, replicate number 1) | Growth Rate (Fibroblast; 18 h, replicate number 2) | Growth Rate (U2OS; 24 h, replicate number 2) | Growth Rate (HEK-293T; 18 h, replicate number 2) | Growth Rate (HEK-293T; 24 h, replicate number 2) | Growth Rate (Fibroblast; 12 h, replicate number 1) | Growth Rate (U2OS; 0 h, replicate number 1) | Growth Rate (Fibroblast; 24 h, replicate number 1) | Growth Rate (HEK-293T; 6 h, replicate number 1) | further results |
| --- | --- | --- | --- | --- | --- | --- | --- | --- | --- | --- | --- | --- | --- | --- | --- | --- | --- | --- | --- | --- | --- |
| COc1ccccc1C(=O)Nc1cccc(NC(=O)c2cccc(C)c2)c1 | 0.17 | 0.68 | 0.78 | 0.75 | 0.83 | 0.84 | 0.88 | 0.58 | 0.91 | 0.45 | 0.94 | 0.17 | 0.98 |  |  |  |  |  |  |  | Growth Rate (Fibroblast; 6 h, replicate number 2): -1; Growth Rate (Fibroblast; 24 h, replicate number 2): 0.85 |
| COc1cc(-c2cc3ncccc3c(O[C@H](C)[C@H]3CNC(=O)C3)n2)cc(OC)c1OC.Cl |  |  | 0.79 |  | 0.92 |  | 0.78 |  |  | 0.62 | 0.61 and 0.94 | 0.88 | 0.86 | 0.94 | 0.97 | 0.86 | 0.89 |  |  |  | Growth Rate (Fibroblast; 0 h, replicate number 1): -1; Growth Rate (Fibroblast; 0 h, replicate number 2): -0.01 |
| Clc1ccc(-c2nc3sccn3c2/C=N/OCc2ccc(Cl)c(Cl)c2)cc1 |  | 0.91 | 0.92 | 0.89 | 0.87 | 0.95 |  | 1 | 1 | 0.02 |  | 0.63 |  | 0.93 |  |  | 0.58 | 0.48 | 0.85 |  | Growth Rate (HEK-293T; 0 h, replicate number 1): -0.74; Growth Rate (HEK-293T; 0 h, replicate number 2): -0.64; Growth Rate (Fibroblast; 0 h, replicate number 2): 0.32 |
| Cc1nc2c([nH]1)c(=O)n(C)c(=O)n2Cc1ccco1 [FURAFYLLINE] |  | 0.59 | 0.95 |  |  | 1 |  | 0.63 | 0.76 | 0.42 |  | 0.5 |  |  | 0.82 | 0.88 | -1 | -0.64 | 0.65 | 0.19 | Growth Rate (U2OS; 0 h, replicate number 2): -0.96; Growth Rate (HEK-293T; 12 h, replicate number 1): 0.18; Growth Rate (HEK-293T; 18 h, replicate number 1): 0.7; Growth Rate (HEK-293T; 24 h, replicate number 1): 0.87; Growth Rate (Fibroblast; 0 h, replicate number 2): -0.99 |
| O=C(Nc1cccc(Nc2nccc(Nc3cccc(C(F)(F)F)c3)n2)c1)C1CC1 [ANILINOPYRIMIDINE1] | -0.16 | -0.36 | -0.21 | -0.42 | -0.21 | -0.3 | -0.08 | -0.97 | -0.79 | -0.79 | -0.73 | -0.68 |  | -0.1 | -0.54 | -0.38 | -0.84 | -0.01 | -0.48 | -0.91 | Growth Rate (U2OS; 0 h, replicate number 2): 0.91; Growth Rate (HEK-293T; 12 h, replicate number 1): -0.71; Growth Rate (HEK-293T; 18 h, replicate number 1): -0.46; Growth Rate (HEK-293T; 24 h, replicate number 1): -0.29; Growth Rate (Fibroblast; 0 h, replicate number 1): -1; Growth Rate (Fibroblast; 6 h, replicate number 2): -1; Growth Rate (Fibroblast; 24 h, replicate number 2): -0.55 |
| COc1ccccc1N1CCN(c2ncnc3c2cnn3-c2ccccc2)CC1 |  |  | 0.47 | 0.93 | 0.13 | 1 | 0.25 | 0.19 | 0.98 | -0.03 | 0.94 | 0.39 |  | 0.85 |  |  | 0.42 | 0.75 | 0.48 | 0.67 | Growth Rate (HEK-293T; 12 h, replicate number 1): 0.99; Growth Rate (Fibroblast; 0 h, replicate number 2): 0; Growth Rate (Fibroblast; 24 h, replicate number 2): 0.91 |
| CN(C)Cc1cccc(NC(=C2C(=O)Nc3cc(C(=O)N(C)C)ccc32)c2ccccc2)c1 |  | 0.99 |  | 0.73 |  | 0.82 |  |  |  | 0.08 |  | 0.68 |  | 0.8 |  | 0.95 | 0.68 |  | 0.47 |  |  |
| CC(C)(C)c1cc(NC(=O)c2csc(Nc3ccccn3)n2)no1 | 0.51 |  | 0.72 | 0.69 | 0.81 |  | 0.65 | -0.51 | -0.02 | 0.76 | 0.03 | 0.21 | 0.35 | 0.97 | 0.01 | 0.2 | 0.84 | 0.58 | 0.31 | -0.14 | Growth Rate (HEK-293T; 12 h, replicate number 1): 0.04; Growth Rate (HEK-293T; 18 h, replicate number 1): 0.08; Growth Rate (HEK-293T; 24 h, replicate number 1): 0.31; Growth Rate (Fibroblast; 6 h, replicate number 2): -0.67; Growth Rate (Fibroblast; 24 h, replicate number 2): 0.35 |
| CC(C)S(=O)(=O)c1ccccc1Nc1nc(N[C@@H]2CCCN(CCCCCCCNC(=O)COc3cccc4c3C(=O)N(C3CCC(=O)NC3=O)C4=O)C2)ncc1Cl (stereo partly drawn) | 0.86 |  | 0.25 | 0.57 | 0.03 | 0.15 | -0.23 | -0.73 | -0.59 | -0.22 | -0.49 | -0.33 | -0.45 | 0.04 | -0.49 | -0.38 | -0.39 | -1 | -0.23 | -0.44 | Growth Rate (HEK-293T; 0 h, replicate number 1): -1; Growth Rate (HEK-293T; 12 h, replicate number 1): -0.41; Growth Rate (HEK-293T; 18 h, replicate number 1): -0.31; Growth Rate (HEK-293T; 24 h, replicate number 1): -0.24; Growth Rate (Fibroblast; 0 h, replicate number 1): -1; Growth Rate (Fibroblast; 6 h, replicate number 2): 0.14; Growth Rate (Fibroblast; 24 h, replicate number 2): -0.45 |
| Cc1ncsc1-c1ccc(CNC(=O)[C@@H]2C[C@@H](O)CN2C(=O)[C@@H](NC(=O)CCCCNC(=O)c2ccc(-c3ccc(N4CCN(C)CC4)c(NC(=O)c4c[nH]c(=O)cc4C(F)(F)F)c3)cc2)C(C)(C)C)cc1 | 0.86 | 0.89 |  | 0.84 | 0.96 | 0.79 | 0.61 | 0.8 |  | 0.29 | 0.74 | 0.33 | 0.86 | 0.71 | 0.86 | 0.72 | 0.65 | 0.71 | 0.46 |  | Growth Rate (HEK-293T; 0 h, replicate number 1): -0.12; Growth Rate (Fibroblast; 0 h, replicate number 1): 0.97; Growth Rate (Fibroblast; 0 h, replicate number 2): 0.64 |
| N[C@@H](CC(=O)O)Cn1nnc(-c2ccc(Oc3ncc(Cl)cc3F)cc2)n1 | 0.62 |  |  |  |  |  |  | 0.12 | 0.58 |  | 0.4 |  | 0.74 |  | 0.72 | 0.83 |  |  | 0.95 | 0.85 | Growth Rate (HEK-293T; 0 h, replicate number 1): 0.53; Growth Rate (HEK-293T; 12 h, replicate number 1): 0.94; Growth Rate (HEK-293T; 24 h, replicate number 1): 0.95; Growth Rate (Fibroblast; 24 h, replicate number 2): 0.76 |
| O=C(O)CCCCCC[C@@H]1C(=O)NC(=O)N1CCC(O)C1CCCCC1 (stereo partly drawn) | 0.54 | 0.99 |  | 0.93 |  | 0.87 |  |  |  | -0.07 |  | 0.69 |  | 0.92 |  |  | 0.61 | 0.14 | 0.75 |  | Growth Rate (HEK-293T; 0 h, replicate number 1): -0.07; Growth Rate (HEK-293T; 0 h, replicate number 2): 0.52; Growth Rate (Fibroblast; 0 h, replicate number 1): -0.99; Growth Rate (Fibroblast; 0 h, replicate number 2): 0.52 |
| CN(C)CC#Cc1ccc2[nH]c3c(c2c1)-c1nc(N)ncc1CCC3 |  | 0.82 | 0.96 | 0.59 | 0.86 | 0.45 | 0.86 | -0.58 | -0.38 | 0.76 | 0.69 | 0.27 | 0.42 | 0.36 | -0.23 | -0.05 | 0.45 | -0.89 | 0.2 | -0.19 | Growth Rate (HEK-293T; 0 h, replicate number 1): -0.2; Growth Rate (HEK-293T; 0 h, replicate number 2): 0.54; Growth Rate (HEK-293T; 12 h, replicate number 1): -0.03; Growth Rate (HEK-293T; 18 h, replicate number 1): 0.11; Growth Rate (HEK-293T; 24 h, replicate number 1): 0.12; Growth Rate (Fibroblast; 0 h, replicate number 1): -1; Growth Rate (Fibroblast; 24 h, replicate number 2): 0.33 |
| CC(=O)c1c(C)c2cnc(Nc3ccc(N4CCNCC4)cn3)nc2n(C2CCCC2)c1=O [PALBOCICLIB] | 0.72 and 0.58 | 0.97 | 0.87 and 0.84 |  | 0.59 and 0.72 |  | 0.76 and 0.92 | 0.69 | 0.81 | 0.91 |  | 0.87 | 0.98 |  | 0.8 | 0.75 | 0.92 |  | 0.79 | 0.61 | Growth Rate (HEK-293T; 0 h, replicate number 1): 0.2; Growth Rate (HEK-293T; 0 h, replicate number 2): 0.78; Growth Rate (HEK-293T; 12 h, replicate number 1): 0.77; Growth Rate (HEK-293T; 18 h, replicate number 1): 0.78; Growth Rate (HEK-293T; 24 h, replicate number 1): 0.83 and 0.98; Growth Rate (Fibroblast; 0 h, replicate number 1): -0.2 |
